# Experimental data as given in patent US10369187B2, “Peptide regulators of JNK family kinases” (Vanderbilt University, priority 2017, dated 2019).
# Test system: ASK1-MKK4/7-JNK3 signaling cascade
# Assay: In cell JNK3 activation assay (co-expression with HA-ASK1 and HA-JNK3α2, phospho-JNK Western blot)
# Format: cell-based, African green monkey
# Conditions: for JNK3 phosphorylation in cells, YFP fusions: YFP fusions co-expressed with JNK3 and ASK1 in COS7 cells
# Experimental: COS-7 African green monkey cells were maintained in DMEM supplemented with 10% heat-inactivated FBS (Invitrogen), penicillin, and streptomycin at 37° C. in a humidified incubator with 5% CO2. The cells were plated at 80-90% confluence and transfected using Lipofectamine 2000 (Invitrogen) according to the manufacturer's instructions. Cells were used 48 h post-transfection and serum-starved overnight before experiments.
# COS-7 cells were incubated with phosphatase inhibitors (50 mM NaF and 10 mM Na3VO4) in serum-free medium for 15 min at 37° C.; washed with cold PBS; and lysed with SDS lysis buffer containing 1% SDS, 10 mM Tris (pH7.4), 10 mM NaF, 100 μM Na3VO4, 2 mM EDTA, 2 mM benzamidine and 1 mM PMSF. JNKs activity was assayed by Western blotting using an antibody specific for phosphorylated JNK to detect phosphorylated (active) JNKs^17,20,23. Whole cell lysates were boiled for 5 min and centrifuged at 10,000×g for 10 min, and the supernatants were used for Western blotting. Protein was measured using the Bio-Rad Coomassie Blue assay. The proteins were resolved on 8% SD S-PAGE and transferred to PVDF membrane (Millipore, Bedford, Mass.). Blots were incubated with the primary antibodies (Cell Signaling Technology, Inc) anti-phospho-JNK, anti-JNK, anti-HA (6E2) (1:1000 to 1:5000), followed by appropriate HRP-conjugated secondary antibodies. Protein bands were detected by enhanced chemiluminescence (ECL, Pierce), followed by exposure to x-ray film. To quantify phospho-JNKs, serial dilutions of anisomycin (1 μg/ml)-stimulated HEK-A cell lysates were used to ensure that all samples were in linear range. The values for these proteins are expressed in arbitrary units.
# The JNK3 activation was next tested in cells (See FIG. 7). COS7 cells were transfected with HA-ASK1, HA-JNK3α2, and YFP-arrestin constructs to measure in cell JNK3α2 activation. Phospho-JNK3 is shown as the uppermost band in the Western analysis, and was analyzed by densitometric quantification using Quantity One software (quantification in bottom panel). […] The data were statistically analyzed by ANOVA with protein as the main factor. Significance of the difference from control (p values) is indicated.
# In Cell JNK3 Activation Assay COS7 African green monkey cells were sustained in DMEM solution containing 10% heat-inactivated FBS (Invitrogen), penicillin, and streptomycin at 37° C. and 5% CO2. Cells were transfected at 90-100% confluency in 6-well plates with pcDNA3-HA-ASK1 (0.4 ug), pcDNA3-HA-JNK3α2 (0.2 ug), and pcDNA3-Venus arrestin constructs (0.2-0.6 ug) at a 1:2 ratio of DNA:Lipofectamine 2000 (Invitrogen). At 48 hrs post-transfection, the cells were incubated with phosphatase inhibitors (20 mM NaF and 1 mM Na3VO4) in PBS for 15 mins, washed twice with cold PBS, and lysed using 50 mM Tris (pH 7.8), 2 mM EDTA, 250 mM NaCl, 10% Glycerol, 0.5% NP-40, 2 mM benzamide, and 1 mM PMSF. Protein concentration was measured using the Bio-Rad Quick Start™ Bovine Serum Albumin (BSA) Standard Set. The proteins were subjected to 10% SDS-PAGE and transferred to PVDF membrane (Millipore, Bedford, Mass.). Membranes were incubated with respective primary antibodies (Cell Signaling Technology, Inc.) anti-ASK1 (#3762S), anti-phospho-JNK (#9251), anti-SAPK/JNK (#9252P), anti-GST (#2625), or anti-HA (#3724), followed by the appropriate HRP-conjugated secondary antibodies. Bands were detected by x-ray film using enhanced chemiluminescence (ECL, Pierce) and quantification was done using the software Quantity One (BioRad).
Substance,"in cell JNK3α2 activation (phospho-JNK3 densitometry) (Example 2, YFP/Venus constructs with HA-ASK1, HA-JNK3α2 in COS7 cells)",effect on JNK3 phosphorylation compared with full-length arrestin-3 (YFP fusion co-expressed with JNK3 and ASK1 in COS7 cells),"JNK3 phosphorylation in cells, YFP fusions",dose-response curve of JNK3 phosphorylation (varying amounts of YFP-T1A with ASK1 and JNK3)
"MGEKPGTRVFKKSSPNCKLTVYLGK (bovine) [T1A, first 25 residues of arrestin-3]",facilitates JNK3 activation,greater than that of full-length arrestin-3,also active,"biphasic, with a clear optimum"
"MGDK-GTRVFKKASPNGKLTVYLGK (MGDKGTRVFKKASPNGKLTVYLGK; N-terminal MGDK; bovine) [B1A, homologous N-terminal peptide from arrestin-2, negative control]",,,does not function as a scaffold of ASK1-MKK4/7-JNK3 cascade in cells,
